Experimental findings from US10688194B2, “Cell penetrating peptides for intracellular delivery of molecules” (AADIGEN, LLC, priority 2012, dated 2020) are described below.

Data set [1] relates to Hela, MCF7, HEK-2, HS-68, and U2OS cells. The data set can be described thus: Cell cycle progression, controls. Format: cell-based.
In the next data set the test system is Cyclin B1. The data set can be described thus: VEPEP-3 mediated delivery of antisense PNA, Cyclin B1 protein level. It is filed as cell-based. As to conditions: different cultured cells. An excerpt: VEPEP-3 peptides have been used for the delivery of nucleic acid analogues (PNA and morpholino) into different cell lines, including primary cell lines and challenging cell lines. […] We have applied VEPEP-3 strategy for the delivery of PNA antisense targeting Cyclin B1 as previously described (Morris et al, 2007).

The test system of a further data set is HEK-2. Format: cell-based. As for the experimental part: (§1) Adherent HS68 fibroblasts, HeLa, PC3, MCF-7, SCK3-Her2, PBMC cell lines (from American Type Culture Collection (ATCC)) were cultured in Dulbecco's Modified Eagle's Medium supplemented with 2 mM glutamine, 1% antibiotics (streptomycin 10,000 μg/ml, penicillin, 10,000 IU/ml) and 10% (w/v) foetal calf serum (FCS), at 37° C. in a humidified atmosphere containing 5% CO2. Stock solutions of VEPEP-3/peptide particles were prepared by complexing 1 μM peptide with VEPEP-3 peptides at a molar ratio of 1/20 for 30 min at 37° C. Lower concentrations of VEPEP-3-carrier/peptide (from 500 nM to […]) were obtained by serial dilution of the stock complexes in PBS, in order to preserve the same VEPEP-3-carrier/peptide ratio. 150,000 cells seeded in a 35 mm dish the day prior transfection, were grown to 60% confluence and overlaid with 200 μl of preformed complexes, incubated for 3-5 min, then 400 μl of DMEM were added. After 30 min. incubation at 37° C., 1 ml of fresh DMEM containing 16% foetal calf serum (FCS) was added in order to reach a final FCS concentration of 10%, without removing the overlay of VEPEP-3/peptide complexes. Cells were returned to the incubator for 24 hrs. For cdk4 and CDK2 derived peptides cell proliferation was monitored after 24 and 48 hrs. For peptide-targeting integrase, HIV proliferation was analyzed on activated PBMC cells after 3 and 5 days. Data reported are an average of 3 or 4 distinct experiments.
(§2) A peptide C2 or C4 concentration of 200 nM was sufficient to block proliferation of Hela, MCF7, HEK-2, HS-68 and U2OS cells.

Data set [2] has as its system Hela. Format: cell-based. As for the experimental part: as §1, §2
A further data set deals with MCF7. It is filed as cell-based. As for the experimental part:
as §1, §2

The test system of data set [3] is Hela, MCF7, HEK-2, HS-68 and U2OS cells. The data set can be described thus: Cell proliferation after VEPEP-3 mediated delivery of C2/C4, several lines. Format: cell-based. As to conditions: delivered by VEPEP-3. On the procedure: as §1, with “Data reported are an average of 3 or 4 distinct experiments.” left out
The subject of data set [4] is Hela. It is filed as cell-based. As for the experimental part: as §1, with “Data reported are an average of 3 or 4 distinct experiments.” left out
This is another data set of the same source.

A further data set has as its system MDA_MB cells. It is filed as cell-based.
The next data set relates to Peptide (C4 and C2). The data set can be described thus: Fluorescence titration, VEPEP-3/cargo binding: peptide. As for the experimental part: (§3) Fluorescence experiments were performed on a PTI spectrofluorimeter at 25° C. in a NaCl 154 mM buffer. Intrinsic Trp-fluorescence of VEPEP-3 was excited at 290 nm and emission spectrum was recorded between 310 and 400 nm, with a spectral band-pass of 2 and 8 nm for excitation and emission, respectively. FITC-fluorescence of labelled-peptide was excited at 492 nm and emission recorded between 500 and 580 nm. For VEPEP-3/peptide interaction, 0.5 μM of FITC-labelled peptide was titrated by increasing concentrations of VEPEP-3. All measurements were corrected for the dilution and curve fitting were performed by using Grafit software (Erithacus).
(§4) VEPEP-3 peptide form stable complexes with peptides and proteins. The binding of cargos to VEPEP-3 was monitored by fluorescence spectroscopy using the […] intrinsic Trp groups of VEPEP-3 (3 to 5 Trp-residues) and extrinsic fluorescently labelled cargoes (using Cy3, Cy5 or FITC). Curve fitting reveal that VEPEP-3 strongly binds the different cargoes with dissociation constant in the nanomolar range (examples with VEPEP-3a, VEPEP-3C, and VEPEP-3g and three different cargoes are reported in FIGS. 1A-1C, all the data are reported in Table 1).

The test system of a further data set is Cyclic peptide (PC4). The data set can be described thus: Fluorescence titration, VEPEP-3/cargo binding: cyclic peptide. As to conditions: cargo: Cyclic peptide (PC4). On the procedure: as §3, §4
The next data set concerns protein (GFP & Nanobody). Nature of the data set: Fluorescence titration, VEPEP-3/cargo binding: protein. As to conditions: cargo: protein (GFP & Nanobody). As for the experimental part:
as §3, §4

Data set [5] in a line: Fluorescence titration, VEPEP-3/cargo binding: small hydrophobic molecule. As to conditions: cargo: Doxorubicine. On the procedure:
as §3
(§5) VEPEP-3 peptides also form stable particles with small aromatic molecules including Daunomycin, Paclitaxel, doxorubicin, porphyrin and charged molecules including nucleotide, nucleoside and peptide-analog of nucleic acids or fluorescent dyes (FIGS. 1A-1C). The dissociation constant for small hydrophobic molecule ranges between 0.05 to 2 μM, depending on the nature of the dyes and of the peptides.

The next data set relates to PNA (15 mer-PNA). Nature of the data set: Fluorescence titration, VEPEP-3/cargo binding: PNA. As to conditions: cargo: 15 mer-PNA. On the procedure:
as §3, §5

Like-named read-outs stand apart in the source and are kept apart here. Ends that are not written are not given here. {Cy5} = cyanine 5 fluorescent label

Consider “VTLMEAKKQVLT (HELM PEPTIDE1{[ac].V.T.L.M.E.A.K.K.Q.V.L.T.[SCCN[*:1]]}$$$$V2.0; SMILES CSCC[C@H](NC(=O)[C@H](CC(C)C)NC(=O)[C@@H](NC(=O)[C@@H](NC(C)=O)C(C)C)[C@@H](C)O)C(=O)N[C@@H](CCC(=O)O)C(=O)N[C@@H](C)C(=O)N[C@@H](CCCCN)C(=O)N[C@@H](CCCCN)C(=O)N[C@@H](CCC(N)=O)C(=O)N[C@H](C(=O)N[C@@H](CC(C)C)C(=O)N[C@H](C(=O)NCCS)[C@@H](C)O)C(C)C) [scrambled C2, reference compound]”, for which the “effect on cell cycle progression” value in data set [1] (500 nM, complexed with VEPEP-3a at a 20/1 ratio) is given as “no effect”.
With “TGC CAT CGG GCT TGG AGG-CY5 (antisense TGCCATCGGGCTTGGAGG; 3' {Cy5}, sugars by position and backbone not given here; further chemistry not fully specified) [PNA (Cyclin B1)]”, the “downregulation of Cyclin B1 protein level” value with Cyclin B1 was “higher than 70%”.
In the case of KKQVRMAHLVLT [C4, KKQVRMAHLVLT], the IC50 was determined as 78 ± 10 nM with HEK-2; 35 ± 12 nM with Hela [2]; 58 ± 6 nM in the data set on MCF7; 36 ± 21 nM in the data set with Hela [4]; 46 ± 14 nM in the data set with MDA_MB cells. In [3], the “peptide concentration sufficient to block proliferation” value turned out to be 200 nM.
Take KKQVLAMEHLVT [C2, KKQVLAMEHLVT]: the IC50 was 102 ± 24 nM in the data set with HEK-2; 37 ± 15 nM in the data set with Hela [2]; 67 ± 15 nM in the data set on MCF7; 36 ± 21 nM in the data set on Hela [4]; 46 ± 14 nM in the data set on MDA_MB cells. Besides, the “peptide concentration sufficient to block proliferation” value in [3] was determined as 200 nM.
Take X1KWFERWFREWPRKRR [VEPEP-3a]: in the data set on Peptide (C4 and C2), the “Binding, peptide” value is reported as “yes” and the Kd was in the range of 10 to 20 nM. For the same substance, in the data set on Cyclic peptide (PC4), the “Binding, Cyclic peptide” value is “yes”. In the data set on protein (GFP & Nanobody), the “Binding, Protein” value was “Yes” and binding was characterised by a dissociation constant (Kd) of 1000 nM. In addition, in [5], the “Binding, SHM” value is listed as “Yes”. Besides, the dissociation constant Kd in data set [5] (read-out: Kd, SHM) is 1000 nM. In the data set on PNA (15 mer-PNA), the “Binding, PNA” value was “Yes” and the affinity, expressed as Kd, was 100 nM. Also, the “effect on cell cycle progression” value in data set [1] (carrier alone (200 μM)) was “no effect”.

The IC50 is the concentration at which inhibition is half-maximal. High values mean weaker potency, low ones greater potency. The term Kd denotes the constant that tells how readily two partners part at equilibrium.
